{"source": "patent US9931335B2", "about": "“Desethylhydroxychloroquine for the treatment of diseases associated with inflammation” (The Board of Trustees of the Leland Stanford Junior …, priority 2013, dated 2018)", "key": {"ARPE-19 cells": {"system": "ARPE-19 cells", "experimental": "The major serious risk to long term administration of hydroxychloroquine is retinal accumulation and subsequent ocular toxicity (Terahi et al, 2008. Semin Opthal. (3):201-208. PMID). The ocular deposition of HCQ, DHCQ, and BDCQ was evaluated by direct retinal cellular toxicity by incubating equivalent concentrations of these molecules with the retinal pigmented epithelial cell line ARPE-19. ARPE-19 is a human retinal pigment epithelial cell line with differentiated properties (Dunn et al., Exp Eye Res. 1996 62(2):155-69). ARPE-19 cells were grown to 90% confluence, and then exposed to 10 µg/ml of HCQ, DHCQ, BDCQ, or vehicle control for 24 hours, following which microscopic analysis and photomicroscopy was performed at 40× power.\nAs described above, ARPE-19 cells were grown to 90% confluence then exposed to 10 μg/ml HCQ, DHCQ, BDCQ, or vehicle control for 24 hours followed by quantitation of cell death by lactate dehydrogenase (LDH) release assay (Abcam)."}, "[1]": {"system": "inflammatory cytokines in mouse OA synovium", "test": "Multiplex cytokine assay of OA synovial tissue from treated DMM mice", "type": "in vivo", "conditions": "for levels of inflammatory cytokines in OA synovium vs vehicle control: heat map, multiplex bead assay", "from_the_text": "From a parallel experiment to the mouse OA experiment presented in Example 12 and FIG. 19, following in vivo dosing and at the time of termination OA synovial tissue was microdissected, homogenized to form a lysate, centrifuged, and supernatants assayed for levels of inflammatory cytokines using a multiplex bead-based cytokine assay (BioRad Laboratories, Hercules, Calif.)."}, "retinal toxicity [2]": {"system": "retinal toxicity", "test": "Estimated retinal toxicity of long-term DHCQ therapy in humans", "type": "in vivo, human", "from_the_text": "The estimated rate of retinal toxicity for long-term treatment with DHCQ is less than 50% of the currently reported rate for HCQ when used at a similar effective cumulative dose and over a similar time period. More specifically, as compared to the rates of retinal toxicity described by Marmor et al. for treatment with HCQ (Ophthalmology. 2011 February; 118(2):415-22), given a similar level of therapeutic activity and time period of dosing for both HCQ and DHCQ, DHCQ is estimated to provide less than 50% of retinal toxicity as compared to that with HCQ dosing. Thus, in patient populations analogous to that described by the […] and Marmor et al (Ophthalmology. 2011 February; 118(2):415-22) where the retinal toxicity rate approach 1% after 5 years, DHCQ therapy is estimated to reduce the retinal toxicity to less that 0.5% of treated individuals. Further, given conventional assumptions that retinal screening is justified as rates of toxicity approach 1%, the reduced cumulative rates of retinal toxicity associated with DHCQ therapy will substantially reduce the need for retinal toxicity screening to a single screening at 5 and 10 years, or entirely negate the need for screening."}, "human OA": {"system": "human OA", "conditions": "cited from earlier work"}, "retinal toxicity [3]": {"system": "retinal toxicity", "conditions": "cited from earlier work"}}, "note": "Like-named read-outs stand apart in the source and are kept apart here.", "data": [{"smiles": "CC(CCCNCCO)Nc1ccnc2cc(Cl)ccc12", "note": "(centres unmarked) [DHCQ, desethylhydroxychloroquine]", "values": [{"measurement": "ARPE-19 cellular toxicity by microscopy", "setting": "ARPE-19 cells; human, 24 h, 10 µg/ml", "value": "less ARPE-19 cellular toxicity"}, {"measurement": "cytokines, DHCQ monotherapy vs vehicle control, atorvastatin alone, HCQ+atorvastatin and HCQ alone (SAM)", "setting": "[1]; false discovery rate <0.1%", "value": "reduced the levels of multiple inflammatory cytokines including IL-1b, MCP-1, IFNγ, TNF-alpha IL12p40, and IL-12p70"}, {"measurement": "levels of inflammatory cytokines in OA synovium vs vehicle control", "setting": "[1]", "value": "lower"}, {"measurement": "estimated retinal toxicity rate in treated individuals after 5 years", "setting": "retinal toxicity [2]; population where HCQ rate approaches 1% after 5 years", "value": "< 0.5", "unit": "%"}, {"measurement": "estimated rate of retinal toxicity, as share of the reported rate for HCQ", "setting": "retinal toxicity [2]; similar effective cumulative dose and time period", "value": "less than 50%"}]}, {"smiles": "CCN(CCO)CCCC(C)Nc1ccnc2cc(Cl)ccc12", "note": "(centres unmarked) [HCQ, hydroxychloroquine]", "values": [{"measurement": "ARPE-19 cellular toxicity by microscopy", "setting": "ARPE-19 cells", "value": "increased cytotoxicity and death"}, {"measurement": "levels of inflammatory cytokines in OA synovium vs vehicle control", "setting": "[1]", "value": "lower"}, {"measurement": "therapeutic benefit in erosive OA", "setting": "human OA; case series", "value": "trends towards therapeutic benefit"}, {"measurement": "disease-modifying or pain-reducing activity in non-erosive OA", "setting": "human OA; in vivo", "value": "has not demonstrated disease-modifying or pain-reducing activity"}, {"measurement": "prevalence of retinal toxicity", "setting": "retinal toxicity [3]; conventional doses, 400 mg/day common", "value": "6.8 users per 1,000"}, {"measurement": "retinal toxicity after 5-7 years of use", "setting": "retinal toxicity [3]; in vivo", "value": "~1", "unit": "%"}, {"measurement": "risk of retinal toxicity after 7 years of usage or 1000 grams of total exposure", "setting": "retinal toxicity [3]; in vivo", "value": 5, "unit": "times higher"}, {"measurement": "risk of retinal toxicity after about 7 years of treatment", "setting": "retinal toxicity [3]; in vivo", "value": "approximately 1%"}, {"measurement": "incidence of retinal toxicity after 5 years", "setting": "retinal toxicity [3]; treated humans, conventional doses", "value": "approximately 1%"}]}]}
